Experimental data: article PMC11513923, “Discovery of ZLC491 as a Potent, Selective, and Orally Bioavailable CDK12/13 PROTAC Degrader” (Journal of Medicinal Chemistry, 2024)

How the values were obtained:
[1] = tested on: DDR proteins (BRCA1, RAD51, ATM); assay: Immunoblotting of DDR proteins in MDA-MB-231 cells; format: cell-based, human; conditions: MDA-MB-231, different doses, 48 h
Experimental: We next evaluated the effect of ZLC491 on the expression of DDR genes regulated by CDK12/13.
(A) Transcription level of DDR genes in MDA-MB-231 cells determined by RT-qPCR upon the treatment with vehicle or ZLC491 at different doses for 12 h, ROR1 was used as a negative control; (B) immunoblotting of DDR proteins in MDA-MB-231 cells after the treatment of ZLC491 at different doses for 48 h; (C) cell antiproliferative activity of ZLC491 in multiple TNBC cells as well as several noncancerous cells. Cells were treated with the compound for 5 days; (D,E) antiproliferative potency of cisplatin or olaparib alone or combined with ZLC491 at different doses in MDA-MB-231 cells for 5 days. Data are plotted using the percentage of absorbance relative to DMSO controls. (F) IC50 values and combination index (CI) in drug combination assay. In this model, CI scores estimate the interaction between the two drugs. If CI < 1, the drugs have a synergistic effect and if CI > 1, the drugs have an antagonistic effect. CI = 1 means the drugs have an additive effect. ^aThe drug combination in the table refers to the starting concentration of the two combined drugs, that would both go through serial dilution when treating cells. […]

CDK12 = CDK12 (Homo sapiens, UniProt Q9NYV4); assay: CDK12 degradation in MDA-MB-231 cells by immunoblotting; format: cell-based; design: Immunoblotting of CDK12 and CDK13 in MDA-MB-231 cells treated with increasing concentrations of ZLC491 for 15 h; endogenous in cells; host or cells: MDA-MB-231
In short: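 MDA-MB-231 cells treated with ZLC491 at increasing concentrations for 15 h (screening at 0.3 μM; time course at 1 μM); SDS lysates immunoblotted, band intensities normalised to α-tubulin. DC50 taken from percent remaining protein versus concentration; representative of three independent experiments.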

Pharmacokinetics in rats = format: in vivo, rat; conditions: male, Sprague-Dawley, rat, plasma
Experimental: We further evaluated the in vivo PK properties of compound ZLC491 and the counterpart 4m (without F substitution) in rats, and the results were summarized in Table 2. […] The PK profiles of F-containing compound ZLC491 were further improved.
The pharmacokinetic investigation was taken by Shanghai Medicilon Inc. (Project Code: 26048-23001-NG). Sprague–Dawley male rats (Specific pathogen Free (SPF), provided by Zhejiang Vital River Laboratory Animal Technology Co. Ltd.) were dosed with ZLC491 solution formulation (5% DMSO, 10% Solutol, 85% normal saline, 2.5 mg/kg for intravenous dose, 10 mg/kg for oral dose) or compound 4m solution formulation (5% DMSO, 10% Solutol, 85% (20%HP-β-CD), 2.5 mg/kg for intravenous dose, 10 mg/kg for oral dose). Blood samples were collected at 0.083, 0.25, 0.5, 1, 2, 4, 8, and 24 h in intravenous administration, 0.25, 0.5, 1, 2, 4, 6, 8, and 24 h in oral administration. The blood samples were collected from sets of three rats at each time point in labeled microcentrifuge tubes containing heparin sodium as an anticoagulant. Plasma samples were separated by centrifugation (2–8 °C, 6800g for 6 min) within 1 h and stored below −80 °C until bioanalysis. All samples were processed for analysis by precipitation using acetonitrile and analyzed with a partially validated LC/MS/MS method. Pharmacokinetic parameters were calculated using the noncompartmental analysis tool of WinNonlin Enterprise software.

CDK12/13 = assay: Immunoblotting of CDK12 and CDK13 in HCC38 cells; format: cell-based, human; conditions: increasing concentrations, 15 h
Experimental: To further characterize the compound, we determined the half-degradation concentration (DC50) values of ZLC491 in MDA-MB-231 cells. […] We also treated MDA-MB-231 cells with 1 μM ZLC491 at various time points.
(A) Immunoblotting of CDK12 and CDK13 in MDA-MB-231 cells treated with increasing concentrations of ZLC491 for 15 h (left). Percent remaining CDK12 and CDK13 proteins were plotted for DC50 determination (right). Protein levels were quantified using ImageJ and normalized to corresponding α-tubulin, then plotted using Graphpad Prism 8.0. The data were representative of three independent experiments; (B) immunoblotting of CDK12 and CDK13 proteins in MDA-MB-231 cells treated with ZLC491 for various time points; immunoblotting of CDK12 and CDK13 in HCC38 (C) and MDA-MB-436 (D) cells treated with increasing concentrations of ZLC491 for 15 h. α-Tubulin was used as a loading control. TEXT PRINTED IN THE PICTURE: (A) ZLC491: MDA-MB-231: CDK12 DC50 = 0.032μM; MDA-MB-231: CDK13 DC50 = 0.028μM DOUBTS OF THE COPYIST ABOUT THIS PICTURE: ZLC491, CDK12 DC50: 0.032 read from small print, the digits 3 and 2 are uncertain / ZLC491, CDK13 DC50: 0.028 read from small print, the last digit may be 8, 6 or 3 […]

Sequence of CDK12 (Q9NYV4 whole entry): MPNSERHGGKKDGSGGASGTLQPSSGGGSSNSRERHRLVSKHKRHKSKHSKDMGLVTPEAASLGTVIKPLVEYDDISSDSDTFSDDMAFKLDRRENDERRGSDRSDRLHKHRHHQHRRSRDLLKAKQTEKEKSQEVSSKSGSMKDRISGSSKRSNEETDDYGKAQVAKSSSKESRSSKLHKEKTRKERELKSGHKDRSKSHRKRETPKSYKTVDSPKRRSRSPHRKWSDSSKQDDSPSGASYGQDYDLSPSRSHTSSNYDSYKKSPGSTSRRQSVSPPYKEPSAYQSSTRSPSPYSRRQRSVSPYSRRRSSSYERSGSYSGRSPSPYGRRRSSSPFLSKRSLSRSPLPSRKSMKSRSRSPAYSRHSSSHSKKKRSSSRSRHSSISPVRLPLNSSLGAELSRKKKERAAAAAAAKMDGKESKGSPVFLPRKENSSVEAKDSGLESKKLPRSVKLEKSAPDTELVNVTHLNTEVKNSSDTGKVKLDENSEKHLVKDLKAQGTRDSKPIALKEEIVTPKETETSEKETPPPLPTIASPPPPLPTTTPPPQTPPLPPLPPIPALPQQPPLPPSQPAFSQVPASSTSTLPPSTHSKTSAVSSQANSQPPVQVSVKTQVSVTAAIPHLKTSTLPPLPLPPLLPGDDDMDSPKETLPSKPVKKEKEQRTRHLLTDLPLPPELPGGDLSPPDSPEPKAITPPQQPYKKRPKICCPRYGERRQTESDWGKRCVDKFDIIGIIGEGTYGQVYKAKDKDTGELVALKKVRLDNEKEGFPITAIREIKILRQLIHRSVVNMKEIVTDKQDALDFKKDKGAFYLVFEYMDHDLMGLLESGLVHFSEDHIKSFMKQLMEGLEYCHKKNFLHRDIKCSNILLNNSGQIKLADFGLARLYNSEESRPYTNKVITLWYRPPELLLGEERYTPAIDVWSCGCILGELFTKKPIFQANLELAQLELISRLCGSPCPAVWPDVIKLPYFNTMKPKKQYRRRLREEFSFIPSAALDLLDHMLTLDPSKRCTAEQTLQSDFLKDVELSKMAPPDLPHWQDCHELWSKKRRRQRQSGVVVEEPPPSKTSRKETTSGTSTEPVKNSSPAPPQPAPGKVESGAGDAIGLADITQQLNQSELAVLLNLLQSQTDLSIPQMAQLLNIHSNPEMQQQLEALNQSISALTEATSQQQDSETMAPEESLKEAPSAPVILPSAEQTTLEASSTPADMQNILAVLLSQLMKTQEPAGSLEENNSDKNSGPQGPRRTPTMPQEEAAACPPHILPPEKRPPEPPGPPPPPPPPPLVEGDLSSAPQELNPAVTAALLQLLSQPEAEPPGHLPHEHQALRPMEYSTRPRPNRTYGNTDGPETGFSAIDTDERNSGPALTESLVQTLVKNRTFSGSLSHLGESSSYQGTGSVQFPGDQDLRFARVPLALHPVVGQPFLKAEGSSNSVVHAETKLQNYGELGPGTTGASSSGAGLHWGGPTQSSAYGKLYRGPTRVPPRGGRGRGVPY
Sequence of CDK12 (O75909 whole entry partner): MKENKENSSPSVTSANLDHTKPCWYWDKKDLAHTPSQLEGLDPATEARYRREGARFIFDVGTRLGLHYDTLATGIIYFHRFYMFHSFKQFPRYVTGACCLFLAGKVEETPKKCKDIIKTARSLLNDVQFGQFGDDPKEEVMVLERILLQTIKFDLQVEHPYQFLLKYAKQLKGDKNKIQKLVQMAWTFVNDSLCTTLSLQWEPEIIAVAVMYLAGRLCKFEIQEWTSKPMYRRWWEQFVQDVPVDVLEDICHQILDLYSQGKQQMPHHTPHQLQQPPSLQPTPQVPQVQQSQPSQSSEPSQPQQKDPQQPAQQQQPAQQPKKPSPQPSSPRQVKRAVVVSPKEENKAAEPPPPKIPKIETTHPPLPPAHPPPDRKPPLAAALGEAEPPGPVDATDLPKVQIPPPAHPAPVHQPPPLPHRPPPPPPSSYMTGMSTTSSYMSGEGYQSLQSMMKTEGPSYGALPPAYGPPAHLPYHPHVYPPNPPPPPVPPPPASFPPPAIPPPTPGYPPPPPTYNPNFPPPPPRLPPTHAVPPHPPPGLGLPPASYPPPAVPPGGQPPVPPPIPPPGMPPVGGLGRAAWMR

SMILES: N#Cc1ccc(N[C@H]2CC[C@H](N(C(=O)NCc3ccccc3)c3ccc(N4CCN(C5CCN(c6cc7c(cc6F)C(=O)N(C6CCC(=O)NC6=O)C7=O)CC5)CC4)cc3)CC2)nc1 (stereo partly shown) [ZLC491, 3-Benzyl-1-((1r,4r)-4-((5-cyanopyridin-2-yl)amino)cyclohexyl)-1-(4-(4-(1-(2-(2,6-dioxopiperidin-3-yl)-6-fluoro-1,3-dioxoisoindolin-5-yl)piperidin-4-yl)piperazin-1-yl)phenyl)urea]
- protein levels of DDR-relative proteins (BRCA1, RAD51, ATM) [1]: reduced
- Protein Degradation (%DMSO control, 0.3 μM) CDK12 (CDK12; MDA-MB-231 cells, 0.3 μM, 15 h, immunoblotting, normalized against α-tubulin): 85%
- DC50 (CDK12; MDA-MB-231 cells, 15 h): 32 nM
- Degradation rates of CDK12 at 0.3 μM (CDK12; supplementary CSV, 0.3 μM): 85%
- AUC(0-t) at 24 h (Pharmacokinetics in rats; iv, i.v. 2.5 mg/kg): 6820 ng·h/mL
- Cmax at 24 h (Pharmacokinetics in rats; iv, i.v. 2.5 mg/kg): 4590 ng/mL
- clearance at 24 h (Pharmacokinetics in rats; iv, i.v. 2.5 mg/kg): 6.38 mL/min/kg
- half-life at 24 h (Pharmacokinetics in rats; iv, i.v. 2.5 mg/kg): 148 min
- bioavailability at 24 h (Pharmacokinetics in rats; oral bioavailability, p.o. 10 mg/kg vs i.v. 2.5 mg/kg): 46.8%
- AUC(0-t) at 24 h (Pharmacokinetics in rats; po, p.o. 10 mg/kg): 12800 ng·h/mL
- Cmax at 24 h (Pharmacokinetics in rats; po, p.o. 10 mg/kg): 1310 ng/mL
- half-life at 24 h (Pharmacokinetics in rats; po, p.o. 10 mg/kg): 175 min
- depletion of CDK12/13 (CDK12/13): concentration-dependent manner
